{
  "source": "patent US4152519A",
  "about": "“16-Hydroxy aspidospermidines and a process for their production” (Parcor, priority 1976, dated 1979)",
  "key": {"[1]": {"test": "acute toxicity in the mouse (LD50, SPEARMAN-KARBER method)", "details": "in vivo", "description": "(§1) The results of the study of the acute toxicity were as follows, the tests having been carried out on the mouse and rat, whilst the product was administered intravenously, subcutaneously and by oesophageal tube. The doses studied were administered in a volume of 1 ml/100 g of body weight, whilst each dose was administered to 5 males and 5 females; the LD 50 was investigated using the SPEARMAN-KARBER method."}, "[2]": {"test": "acute toxicity in the rat (LD50, SPEARMAN-KARBER method)", "details": "in vivo", "description": "as §1"}, "[3]": {"details": "in vivo", "text": "2. the chronic toxicity (rats and dogs),\n4. the local and general tolerance,\n5. the possible teratogenic effects, […]"}, "low-pressure hypoxia": {"test_system": "low-pressure hypoxia", "test": "mortality caused by low-pressure hypoxia in the mouse", "assay_type": "in vivo, mouse (NMRI-Han)", "design": "survival time, average and standard deviation: unit not given here", "description": "An artificial altitude was created by placing the mouse in a sealed box and progressively reducing the pressure to 190 mm of mercury (equivalent to about 10,000 meters altitude) using a CEM-type pump, so that the desired altitude is obtained in 1 minute 10 seconds on average. A stopwatch is then started and the exact time when the chest movements cease is noted. Any mouse whose survival time is more than twice the average value noted in the corresponding \"solvent control\" series is regarded as protected.\nThe ED50 was calculated from the percentage of \"protected\" mice using the graphical method indicated by LITCHFIELD and WILCOXON (J. Pharm. Exp. Ther., 1949, 96, 99-113).\nThe compound was administered by intraperitoneal route 20 minutes before the altitude is artifically created; whatever the dose, the volume injected was always equal to 20 ml/kg.\nThe effects were also examined after administration by oesophageal tube 60 minutes before the test, whilst the volume administered is always 20 ml/kg.\nThe entire study was carried out on adult male EOPS mice (4 to 5 weeks old) of the NMRI-Han strain, divided into random test groups after being fed only water for 18 hours."}, "[4]": {"test_system": "cortical electrogenesis disrupted by the presence of a unilateral cerebral oedema", "test": "effect on cortical electrogenesis disrupted by unilateral cerebral oedema in the unanaesthetised rabbit", "assay_type": "in vivo", "description": "48 hours before use, the animal's cranium is exposed and stainless steel electrodes are screwed on so as to contact the dura mater on the frontal and occipital lobes on both sides of the median and transverse sutures. The electrocorticogram is recorded on a REEGA MINI HUIT TR electroencephalograph mounted transversely and longitudinally, whilst a 4th channel serves to record the electrocardiogram. Moreover, a flap of bone 7 to 10 mm in diameter was removed on one side, and this operation was not found, 48 hours later, to have caused any appreciable disruption of the electrical activity of the cortex.\nAn oedema was then produced by removing the dura mater and arachnoid; it usually takes the form of a hernia of the cortex. The treatment is then given and the electrocorticographic trace is monitored every hour during and after administration of the test products, then 24 and 48 hours later.\nThe action of the test products is assessed on the basic electrogenesis, particularly on the presence of slow waves and on the signs of cortical reactivity to two exteroceptive stimuli: a receptive stimulus (electrical tone lasting 2 seconds) and a nociceptive stimulation of the nerve endings in the skin by pinching the dorsal skin using KOCHER forceps.\nThe compounds are administered by either intravenous or intragastric route."}, "[5]": {"test_system": "\"spatial disorientation\" syndrome", "test": "effect on a \"spatial disorientation\" syndrome in the rat (aquatic labyrinth after electric shock)", "assay_type": "in vivo, rat (Wistar AF-Han)", "description": "This study was carried out using male rats of the Wistar AF-Han EOPS strains weighing about 160 g and about 6 to 7 weeks old.\nAfter being guided through once by the experimenter, the rats are first of all subjected to 4 tests in 2 days in an aquatic labyrinth described by GIURGEA and MOURAVIEFFLESUISSE (J. Pharmacol. PARIS, 1972, 3, 1, 17-30).\nOn the 3rd day, the rats are subjected to a supramaximal electric shock delivered by a Neurovac controlled by a CRC OC 342 oscillograph; the electric shock has the following characteristics: 100 Hz, 0.5 ms, 1 second, 60 volts.\nAfter passing through the labyrinth 20 minutes after the electric shock, the rats are given their treatment by oesophageal tube. Two tests are carried out 40 and 100 minutes after treatment, i.e. 60 and 120 minutes after the electric shock, and the time taken to pass through the labyrinth by each animal is timed; the number of errors is also noted.\nThe rats are put on a diet of water for 18 hours after passing through for the 4th time. The compound is administered by intragastric route in a volume of 5 ml/kg.\ntime taken to leave the aquatic labyrinth;\naverage number of errors made in an effort to leave the labyrinth;\npercentage of \"normal\" subjects, i.e. rats passing through the labyrinth with only 0-4 errors."}, "[6]": {"test": "stability in acidic medium", "assay_type": "physicochemical"}, "[7]": {"details": "50 mg/kg group, 20 minutes after electric shock (before treatment)"}, "[8]": {"details": "50 mg/kg group, before electric shock (before treatment)"}, "[9]": {"details": "50 mg/kg intragastric, 60 minutes after electric shock (40 minutes after treatment)"}, "[10]": {"details": "50 mg/kg intragastric, 120 minutes after electric shock (100 minutes after treatment)"}, "[11]": {"details": "100 mg/kg group, 20 minutes after electric shock (before treatment)"}, "[12]": {"details": "100 mg/kg group, before electric shock (before treatment)"}, "[13]": {"details": "100 mg/kg intragastric, 60 minutes after electric shock (40 minutes after treatment)"}, "[14]": {"details": "100 mg/kg intragastric, 120 minutes after electric shock (100 minutes after treatment)"}},
  "data": [
    {"smiles": "CCC12CCCN3CCC4(C(=Nc5ccccc54)C(O)(C(=O)OC)C1)C32", "note": "(single isomer, unassigned) [the compound]", "values": [
      {"measurement": "LD50 at 72 h", "setting": "[1]; iv", "result": 86, "unit": "mg/kg"},
      {"measurement": "LD50 at 72 h", "setting": "[1]; po", "result": 860, "unit": "mg/kg"},
      {"measurement": "LD50 at 72 h", "setting": "[1]; sc", "result": 176, "unit": "mg/kg"},
      {"measurement": "LD50 at 72 h", "setting": "[2]; iv", "result": 63.4, "unit": "mg/kg"},
      {"measurement": "LD50 at 72 h", "setting": "[2]; po", "result": 777, "unit": "mg/kg"},
      {"measurement": "LD50 at 72 h", "setting": "[2]; sc", "result": 126, "unit": "mg/kg"},
      {"measurement": "tolerance", "setting": "[3]", "result": "tolerated well both orally and by parenteral or intramuscular route, without causing local or general reactions"},
      {"measurement": "survival time, average and standard deviation", "setting": "low-pressure hypoxia; 2.5 mg/kg i.p., 20 minutes before altitude", "result": "88.4 ± 7.01"},
      {"measurement": "survival time, average and standard deviation", "setting": "low-pressure hypoxia; 5.0 mg/kg i.p., 20 minutes before altitude", "result": "108.5 ± 20.22"},
      {"measurement": "survival time, average and standard deviation", "setting": "low-pressure hypoxia; 10.0 mg/kg i.p., 20 minutes before altitude", "result": "155.7 ± 30.42"},
      {"measurement": "survival time, average and standard deviation", "setting": "low-pressure hypoxia; 15 mg/kg i.p., 20 minutes before altitude", "result": "179.6 ± 32.07"},
      {"measurement": "survival time, average and standard deviation", "setting": "low-pressure hypoxia; 20 mg/kg i.p., 20 minutes before altitude", "result": "275.4 ± 39.77"},
      {"measurement": "survival time, average and standard deviation", "setting": "low-pressure hypoxia; 30 mg/kg i.p., 20 minutes before altitude", "result": "308.5 ± 35.65"},
      {"measurement": "survival time, average and standard deviation", "setting": "low-pressure hypoxia; 50 mg/kg p.o., 60 minutes before test", "result": "122.6 ± 11.75"},
      {"measurement": "survival time, average and standard deviation", "setting": "low-pressure hypoxia; 100 mg/kg p.o., 60 minutes before test", "result": "186.8 ± 25.70"},
      {"measurement": "survival time, average and standard deviation", "setting": "low-pressure hypoxia; 150 mg/kg p.o., 60 minutes before test", "result": "179.7 ± 20.23"},
      {"measurement": "survival time, average and standard deviation", "setting": "low-pressure hypoxia; 200 mg/kg p.o., 60 minutes before test", "result": "287.0 ± 25.58"},
      {"measurement": "survival time, average and standard deviation", "setting": "low-pressure hypoxia; 250 mg/kg p.o., 60 minutes before test", "result": "306.5 ± 29.46"},
      {"measurement": "survival time, average and standard deviation", "setting": "low-pressure hypoxia; 300 mg/kg p.o., 60 minutes before test", "result": "281.6 ± 30.61"},
      {"measurement": "protection from the toxic effects of artificial altitude", "setting": "low-pressure hypoxia; regardless of the route of administration", "result": "makes it possible to protect the mouse from the toxic effects of artificial altitude"},
      {"measurement": "effect on the development of electrogenesis in the cortex disrupted by unilateral cerebral oedema", "setting": "[4]; conclusion, unanaesthetised rabbit", "result": "beneficial effect"},
      {"measurement": "increase of the value of the \"R\" index", "setting": "[4]; intragastric, 5 mg/kg", "result": "~30", "unit": "%"},
      {"measurement": "value of the \"R\" index", "setting": "[4]; intragastric, 10 mg/kg, during the 8 hours following ingestion", "result": "a clear improvement in the value of the \"R\" index"},
      {"measurement": "activity with regard to oedema symptoms (spontaneous electrogenesis and duration of alert reactions)", "setting": "[4]; intravenous, 0.5 mg, 1 mg and 2 mg/kg", "result": "has a therapeutic acitivity with regard to oedema symptoms"},
      {"measurement": "average number of errors", "setting": "[5]; [7]", "result": 23.4},
      {"measurement": "average time taken to leave the aquatic labyrinth", "setting": "[5]; [7]", "result": 186, "unit": "s"},
      {"measurement": "percentage of \"normal\" subjects (0-4 errors)", "setting": "[5]; [7]", "result": 0, "unit": "percentage"},
      {"measurement": "average number of errors", "setting": "[5]; [8]", "result": 3.4},
      {"measurement": "average time taken to leave the aquatic labyrinth", "setting": "[5]; [8]", "result": 39, "unit": "s"},
      {"measurement": "percentage of \"normal\" subjects (0-4 errors)", "setting": "[5]; [8]", "result": 80, "unit": "percentage"},
      {"measurement": "average number of errors", "setting": "[5]; [9]", "result": 15.2},
      {"measurement": "average time taken to leave the aquatic labyrinth", "setting": "[5]; [9]", "result": 96, "unit": "s"},
      {"measurement": "percentage of \"normal\" subjects (0-4 errors)", "setting": "[5]; [9]", "result": 28, "unit": "percentage"},
      {"measurement": "average number of errors", "setting": "[5]; [10]", "result": 8.9},
      {"measurement": "average time taken to leave the aquatic labyrinth", "setting": "[5]; [10]", "result": 68, "unit": "s"},
      {"measurement": "percentage of \"normal\" subjects (0-4 errors)", "setting": "[5]; [10]", "result": 52, "unit": "percentage"},
      {"measurement": "average number of errors", "setting": "[5]; [11]", "result": 22.6},
      {"measurement": "average time taken to leave the aquatic labyrinth", "setting": "[5]; [11]", "result": 168, "unit": "s"},
      {"measurement": "percentage of \"normal\" subjects (0-4 errors)", "setting": "[5]; [11]", "result": 0, "unit": "percentage"},
      {"measurement": "average number of errors", "setting": "[5]; [12]", "result": 3.4},
      {"measurement": "average time taken to leave the aquatic labyrinth", "setting": "[5]; [12]", "result": 37, "unit": "s"},
      {"measurement": "percentage of \"normal\" subjects (0-4 errors)", "setting": "[5]; [12]", "result": 77, "unit": "percentage"},
      {"measurement": "average number of errors", "setting": "[5]; [13]", "result": 13.9},
      {"measurement": "average time taken to leave the aquatic labyrinth", "setting": "[5]; [13]", "result": 103, "unit": "s"},
      {"measurement": "percentage of \"normal\" subjects (0-4 errors)", "setting": "[5]; [13]", "result": 17, "unit": "percentage"},
      {"measurement": "average number of errors", "setting": "[5]; [14]", "result": 8.9},
      {"measurement": "average time taken to leave the aquatic labyrinth", "setting": "[5]; [14]", "result": 80, "unit": "s"},
      {"measurement": "percentage of \"normal\" subjects (0-4 errors)", "setting": "[5]; [14]", "result": 47, "unit": "percentage"},
      {"measurement": "recovery of memory", "setting": "[5]; oral route, conclusion", "result": "accelerates the recovery of memory already instilled"},
      {"measurement": "stability in an acidic medium", "setting": "[6]", "result": "unstable in an acidic medium"}
    ]}
  ]
}
